# Experimental data published in patent publication US8778643B2, “Methods for increasing lipid levels and producing triacylglycerols in algae” (priority 2012, dated 2014).
# Read-outs that look alike come from different tables or passages of the source.
# Columns and labels:
# [1] = molecular target: T1, CDC25 phosphatase 25C-cat (Homo sapiens, UniProt P30307); conditions: cited from earlier work
# T1 construct: 25C-cat
# [2] = molecular target: CDC25 phosphatase 25C (Homo sapiens, UniProt P30307); conditions: cited from earlier work
# [3] = molecular target: CDC25 phosphatase 25A (Homo sapiens, UniProt P30304); conditions: cited from earlier work
# [4] = system: Phaeodactylum tricornutum; assay: Microplate assay: growth (absorbance 680 nm) and intracellular lipids (Nile Red fluorescence); type: cell-based
# Description: (§1) Stock cultures were aerated by stirring with bubbling air (homemade manifold with Petco air pump, 2-4% CO2) or by orbital shaking (Thermo Scientific MAXQ 2000) at a constant speed of 150 rpm at 22±3° C. with a 16:8 hour light/dark cycle. Stocks were kept at stationary phase for use. Algae were prepared as dictated by culture center.
# (§2) Compounds were selected based on reported biological activity in non-microalgae organisms. To ensure that compounds retained their quality, they were stored under advised conditions after purchasing from the manufacturer. Solutions of all assay compounds were prepared as 10 mM stock solutions by dissolving in DMSO in 2-dram amber vials and then stored in darkness −20° C. 96-well PCR plates were used to create a stock plate layout that was then transferred to the algae microplates. A plate map was used to distribute each compound to a well based on molecule name, collection number, and CAS number. For 20 μM and 200 nM assay plates, 10 mM compound stock in DMSO was diluted into plate maps of 5 mM and 50 μM assay stocks, respectively.
# (§3) All materials for assay experiments were autoclaved before each use to maintain axenic algae cultures. Algae species were checked for homogeneity using a TS-100 light microscope (Nikon, Japan). […] Diluted stock solutions were made immediately prior to use for consistency and optimal plate growth. Cell density was measured on a Thermo Scientific Genesys 10S Vis Spectrophotometer (ThermoFisher, San Jose), using a 1 mL cuvette at 680 nm.
# (§4) Plates were originally run in triplicate, before replicates were increased to quadruplicate, along with a separate control plate to compare growth. Due to extensive evaporation in exterior wells over time, our unique algae plate layout was designed to use the 60 interior wells out of 96 wells for the experiment. The 36 outer wells were filled with Millipore water and media to prevent evaporation and edge effects in the inner algae wells, as well as serve as blanks. The 60 wells with algae contained a total volume of 251 μL (100 μL of media+DMSO compound stock +150 μL dilute algae stock). For 20 μM and 200 nM assay plates, 10 mM compound stock in DMSO is diluted into plate maps of 5 mM and 50 μM assay stocks, respectively. […] Plates were parafilmed during growth to limit the amount of evaporation that can occur. Plates were numbered, and numerically ordered to ensure they got the same shaker space.
# (§5) The shakers are kept at a constant shaking of 150 rpm. Ambient temperature is 22±3° C.
# [5] = system: Nannochloris sp.; assay: as above; type: cell-based; conditions: for Absorbance (percent increase) / Nile Red percent increase: 200 nM, initial microplate screen, relative to control; for Nile Red Fluorescence % Increase: Nannochloris sp., initial screening, p<0.05
# Description: as §1, §2, §3, §4, §5
# [6] = system: antioxidant response element; conditions: cited from earlier work
# [7] = system: Nannochloropsis salina
# [8] = system: Nannochloropsis sp.; assay: Microplate assay: increase of lipid production (Table 17); type: cell-based; conditions: best conc. 2.4 nM
# Excerpt: We also tested a collection with more antioxidants, kinase inhibitors, and further compounds for increase of lipid production with N. salina, P. tricornutum, N. oculata, and Nannochloropsis sp.
# [9] = molecular target: arachidonate 15-LO (Homo sapiens, UniProt P16050); conditions: cited from earlier work
# [10] = molecular target: CDK6 (Homo sapiens, UniProt Q00534); conditions: cited from earlier work
# [11] = system: Nannochloropsis oculata; conditions: 55.2-165.6 nM
# Description: as §1, §2, §3, §4, §5
# [12] = molecular target: protein phosphatase 2A (Homo sapiens, UniProt P67775); conditions: cited from earlier work
# [13] = 200 nM, initial microplate screen, relative to control
# Chain of CDC25 phosphatase 25C (P30307 whole entry): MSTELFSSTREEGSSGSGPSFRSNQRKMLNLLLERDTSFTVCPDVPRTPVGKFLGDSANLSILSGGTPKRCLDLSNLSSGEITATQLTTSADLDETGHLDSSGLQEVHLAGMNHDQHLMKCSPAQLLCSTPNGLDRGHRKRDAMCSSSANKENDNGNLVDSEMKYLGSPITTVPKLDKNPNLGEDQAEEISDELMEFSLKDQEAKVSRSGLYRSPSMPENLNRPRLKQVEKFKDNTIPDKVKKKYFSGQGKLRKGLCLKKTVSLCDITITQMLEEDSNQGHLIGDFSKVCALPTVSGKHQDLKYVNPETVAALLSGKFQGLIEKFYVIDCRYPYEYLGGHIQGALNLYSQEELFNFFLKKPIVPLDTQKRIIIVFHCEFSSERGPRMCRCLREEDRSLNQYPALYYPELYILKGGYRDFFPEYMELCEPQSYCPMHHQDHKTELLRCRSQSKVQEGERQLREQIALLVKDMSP
# Chain of CDC25 phosphatase 25A (P30304 whole entry): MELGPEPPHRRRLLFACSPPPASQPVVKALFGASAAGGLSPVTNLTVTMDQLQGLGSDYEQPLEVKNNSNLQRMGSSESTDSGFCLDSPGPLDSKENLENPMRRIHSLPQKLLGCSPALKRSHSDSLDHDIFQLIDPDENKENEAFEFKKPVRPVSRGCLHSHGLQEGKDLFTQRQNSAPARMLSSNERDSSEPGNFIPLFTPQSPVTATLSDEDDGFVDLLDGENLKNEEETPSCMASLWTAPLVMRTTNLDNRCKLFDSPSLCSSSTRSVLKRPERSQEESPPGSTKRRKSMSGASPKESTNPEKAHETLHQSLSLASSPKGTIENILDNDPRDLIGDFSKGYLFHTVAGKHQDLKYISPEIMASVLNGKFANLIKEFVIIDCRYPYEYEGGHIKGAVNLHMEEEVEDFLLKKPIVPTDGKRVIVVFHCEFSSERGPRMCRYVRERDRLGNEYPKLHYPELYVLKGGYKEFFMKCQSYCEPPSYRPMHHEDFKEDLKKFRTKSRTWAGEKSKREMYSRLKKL
# T1 sequence (P30307 321-428 limits assumed): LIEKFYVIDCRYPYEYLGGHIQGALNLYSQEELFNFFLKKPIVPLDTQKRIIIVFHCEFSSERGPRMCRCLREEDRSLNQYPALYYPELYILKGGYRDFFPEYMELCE
# Chain of arachidonate 15-LO (P16050 whole entry): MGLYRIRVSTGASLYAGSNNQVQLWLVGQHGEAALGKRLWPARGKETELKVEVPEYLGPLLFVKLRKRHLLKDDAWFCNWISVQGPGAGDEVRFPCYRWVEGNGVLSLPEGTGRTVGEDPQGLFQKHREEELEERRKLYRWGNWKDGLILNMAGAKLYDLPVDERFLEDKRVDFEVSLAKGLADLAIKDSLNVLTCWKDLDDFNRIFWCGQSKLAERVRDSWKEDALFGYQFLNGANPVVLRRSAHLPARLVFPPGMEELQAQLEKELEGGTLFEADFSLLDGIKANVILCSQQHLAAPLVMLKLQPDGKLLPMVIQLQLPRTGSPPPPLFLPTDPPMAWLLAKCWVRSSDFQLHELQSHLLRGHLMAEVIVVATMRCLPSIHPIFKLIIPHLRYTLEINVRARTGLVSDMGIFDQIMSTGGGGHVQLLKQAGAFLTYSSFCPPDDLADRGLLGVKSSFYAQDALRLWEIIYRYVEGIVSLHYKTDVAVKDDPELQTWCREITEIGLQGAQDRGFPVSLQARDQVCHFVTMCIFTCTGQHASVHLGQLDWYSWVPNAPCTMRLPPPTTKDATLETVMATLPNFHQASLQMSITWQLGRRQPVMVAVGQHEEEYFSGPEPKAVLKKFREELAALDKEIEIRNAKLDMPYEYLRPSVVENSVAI
# Chain of CDK6 (Q00534 whole entry, looked up): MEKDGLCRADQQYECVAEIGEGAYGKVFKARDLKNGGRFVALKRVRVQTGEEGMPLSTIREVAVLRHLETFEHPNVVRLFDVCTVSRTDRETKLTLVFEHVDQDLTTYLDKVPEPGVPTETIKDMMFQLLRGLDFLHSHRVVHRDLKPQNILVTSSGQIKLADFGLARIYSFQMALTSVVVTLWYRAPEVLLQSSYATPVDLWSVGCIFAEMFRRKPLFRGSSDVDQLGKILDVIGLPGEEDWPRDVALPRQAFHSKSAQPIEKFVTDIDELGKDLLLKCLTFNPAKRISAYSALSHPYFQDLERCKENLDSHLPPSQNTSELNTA
# Chain of protein phosphatase 2A (P67775 whole entry): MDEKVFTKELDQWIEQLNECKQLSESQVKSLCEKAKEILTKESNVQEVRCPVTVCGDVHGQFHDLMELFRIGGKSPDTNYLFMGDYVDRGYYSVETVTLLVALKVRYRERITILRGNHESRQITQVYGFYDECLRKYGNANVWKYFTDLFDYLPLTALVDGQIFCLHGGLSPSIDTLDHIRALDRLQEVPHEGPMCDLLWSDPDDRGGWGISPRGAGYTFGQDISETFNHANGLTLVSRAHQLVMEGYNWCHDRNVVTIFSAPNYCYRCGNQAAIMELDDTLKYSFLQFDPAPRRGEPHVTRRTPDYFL
molecule,measurement,setting,value
"6-Chloro-7-(2-morpholin-4-yl-ethylamino)-quinoline-5,8-dione [CDC25 Phosphatase Inhibitor I]",IC50,[1],4.6 µM
same,IC50,[2],5.4 µM
same,IC50,[3],2400 nM
"CC1=CC(=O)CC(C)(C)[C@@]1(O)/C=C/C(C)=C\C(=O)O [Abscisic acid, (2Z,4E)-5-[(1S)-1-hydroxy-2,6,6-trimethyl-4-oxocyclohex-2-en-1-yl]-3-methylpenta-2,4-dienoic acid]",Absorbance (percent increase),[4]; [13],−1.2%
same,Nile Red percent increase,[4]; [13],87.0%
same,Nile Red Fluorescence % Increase,"[4]; P. tricornutum, compounds tested at 200 nM, initial screening, p<0.05",87.0%
same,Absorbance (percent increase),[5],−2.6%
same,Nile Red percent increase,[5],61.6%
same,Nile Red Fluorescence % Increase,[5]; compounds tested at 200 nM,90.8%
same,agonist of antioxidant response element at,[6],element at 37.6 μM)
same,Nile Red Fluorescence % Increase,"[7]; N. salina, compounds tested at 20 μM, initial screening, p<0.05",34.5%
"CC(=O)Nc1ccc(O)cc1 [Acetaminophen, N-(4-hydroxyphenyl)ethanamide]",Absorbance (percent increase),[5],−6.7%
same,Nile Red percent increase,[5],68.9%
same,Nile Red Fluorescence % Increase,[5]; compounds tested at 20 μM,89.7%
same,% Inc,[8],13.11%
same,IC50,[9],28.4 µM
"CCNc1cc(N[C@H]2CC[C@H](O)CC2)nc(Nc2ccc3c(ccn3Cc3ccccc3)c2)n1 [CDK4/6 Inhibitor 4, trans-4-((6-(ethylamino)-2-((1-(phenylmethyl)-1H-indol-5-yl)amino)-4-pyrimidinyl)amino)-cyclohexanol]",% Increase based on Nile Red Fluorescence Intensity,"[4]; P. tricornutum, 10 μM, DMSO delivery, added t=day 0",50%
same,IC50,[10],5.6 µM
"CC12C(=O)OC(=O)C1(C)C1CCC2O1 (stereo not drawn) [Cantharidin, 2,6-Dimethyl-4,10-dioxatricyclo-[5.2.1.0^2,6]decane-3,5-dione]",% increase (lipid production),[4]; 0.0252-0.0757 nM,9-35%
same,% increase (lipid production),[4]; 0.0252-165.6 nM (H2O),0.17-168.19%
same,% increase (lipid production),[11],11-54%
same,Absorbance (percent increase),[5],−6.5%
same,Nile Red percent increase,[5],64.5%
same,Nile Red Fluorescence % Increase,[5]; compounds tested at 20 μM,22.9%
same,IC50,[12],40 nM
same,% increase (lipid production),[7]; 0.0252-0.681 nM,1-15%
same,% increase (lipid production),[7]; 0.0252-165 nM (H2O),7-87%
